Assay results taken from patent US20240114943A1, “TASTE-IMPROVING COMPOSITIONS AND USES THEREOF” (AMAI PROTEINS LTD., priority 2020, published 2024).

Experiments:
[1] = Sensory expert panel time-intensity evaluation (sweetness intensity over time); type: in vivo, human
Experimental: The samples were evaluated by a panel of (˜15) prescreened, highly-sensitive, trained and calibrated expert tasters: The parameters quantified included Sweetness profile over time (Sweetness intensity with time after intake), Linger (Area under the sweetness intensity vs. time curve (AUC) from 60 to 150 or to 300 seconds), Linger time (Delta time from initial- to zero sweetness), Ratio of the Intensity at 60 seconds to the maximal intensity, Linger T50: Time to reach 50% of the maximal sweetness, Linger T10: Time to reach 10% of the maximal sweetness. The qualitative similarity of the taste to that of sugar was also evaluated, to describe attributes other than time-intensity profile.
Dilute citrate buffer was prepared in mineral water. […]
All micro-patched SP (MP-SP) were evaluated for sweetness intensity over time. The sensory panelists for the evaluation were screened for sensitivity for small differences in sweetness intensity and other basic tastes (saltiness, sourness, and bitterness), as well as sensory memory. These screening tests were performed according to ISO standards (IS 8586). The sensory expert panel was professionally trained and continuously assessed as to reproducibility and capability to differentiate between standard samples.
Sensory Method—Time Intensity (Measuring Sweetness Intensity Over Time): • 1. The products were tasted by an expert panel. • 2. Panelists were calibrated first with sugar solutions on a scale of 0-100 (magnitude estimation), while 0=not sweet at all. Calibration solutions used were 4% sucrose (defined as 50 sweetness) and 8% (defined as 100 sweetness grade). • 3. After calibration, the tasters preformed time-intensity evaluation for each sample according to the following stages: • a. After giving a signal, all tasters put the sample in their mouth, rolled it in their oral cavity for 2 seconds, and then swallowed. • b. After swallowing, the guide measured times, and at each time point, the taster was asked to grade the currently sensed sweetness intensity on the same scale (0-100) until the taste has disappeared. • c. The time periods examined were: 1, 2, 5, 7, 10, 15, 30, 45, 60, 90, 120, 150, 180, 210, 240, 270, and 300 seconds. • 4. Each panelist tasted a total of 6 products: SP standalone and four ratios of EGCG+SP tasted in varying orders. Sucrose solution (8Bx) was always tasted at the end. • 5. All the tested products were served using code numbers. • 6. Before and between samples, the tasters were requested to rinse their mouth with mineral water, eat an unsalted cracker and a cucumber, and drink water again. • 7. 11-15 tasters participated in these tests.

[2] = Meta-analysis of sensory panel meetings: four measures of lingering; type: in vivo, human; conditions: summary of Example 4
Experimental: The meta-analysis was based on 44 sensory panel meetings and 55 MP agents. Statistical analysis was conducted. Four measures of lingering were defined: • AUC—the area under the time-intensity curve from 60 seconds to 300 seconds. • I60/max—the ratio between the intensity recorded at 60 seconds and the maximum intensity recorded. • T50—the time in seconds at which intensity recorded was 50% of the maximal intensity recorded • T10—the time in seconds at which intensity recorded was 10% of the maximal intensity recorded
Each graph refers to a single parameter. The graphs show means and standard errors for the MP agents that show significant improvement compared to the control (DM09 alone). The standard errors are calculated according to all the data in the Meta analysis (including data that are not shown in the graph).
The mean for the protein without MP agents is colored black.

Q: Which “Sweetness profile over time (sweetness-intensity-vs.-time curve, lingering effect)” value ([1]; DM09 0.02 mg/ml, 8 Bx sugar equivalence level, vs DM09 alone) does the source give for `CC1(C)[C@@H](O[C@H]2O[C@H](C(=O)O)[C@@H](O)[C@H](O)[C@H]2O[C@@H]2O[C@H](C(=O)O)[C@@H](O)[C@H](O)[C@H]2O)CC[C@]2(C)[C@H]3C(=O)C=C4[C@@H]5C[C@@](C)(C(=O)O)CC[C@]5(C)CC[C@@]4(C)[C@]3(C)CC[C@@H]12.N` [Mono Ammonium Glycyrrhizinate, monoammonium glycyrrhizinate, reference compound] here?
A: decreasing the lingering effect

Q: Which “Typical linger of sugar” value ([1]; in vivo) does the source give for `OC[C@H]1O[C@@](CO)(O[C@H]2O[C@H](CO)[C@@H](O)[C@H](O)[C@H]2O)[C@@H](O)[C@@H]1O` [sucrose, reference compound] here?
A: ~60 s

Q: For “epigallocatechin-3-gallate [EGCG, reference compound]”, which “Sweetness profile over time (sweetness intensity)” value ([1]; EGCG with MNEI 0.08 mg/ml, 8 Bx, vs MNEI alone and sucrose, FIG. 1) is on record?
A: significantly improved the sweetness profile of SP

Q: What about the “Sweetness profile of DM09 (lingering effect)” value [2] of the same molecule?
A: decreasing the lingering effect

B1: DM09: designer monellin, SEQ ID NO: 3; the sweet protein (SP) of Example 5 (protein)
chain: GNWEIIDIGPFTQNLGKFAVDEANKIGQYGRLTFNKVIRPCMKKTIYENEGFREIKGYEYQLYVRASDKLFRADISEDYKTRGRKLLRFNGPVPPP
Q: Which results are given for B1?
A: Linger time (Delta time (in sec) from initial to 0 sweetness intensity) ([1]; DM09 0.02 mg/ml, 8 Bx sugar equivalence level, vs DM09 alone, P<0.05): significantly higher than the delta time of DM09:lactisole:tannic acid:ammonium Glycyrrhizinate; Linger time (Delta time (in sec) from initial to 0 sweetness intensity) ([1]; DM09 0.02 mg/ml, 8 Bx sugar equivalence level, vs DM09 alone, P<0.05, listed as DM09 only): significantly higher than the delta time of Quillija:DM09 (26:1); Linger (sweetness-intensity-vs.-time curve) ([1]; sweet protein with gymnemic acids and/or maltodextrin, FIG. 15): longest linger time

B2: MNEI: single chain Monellin (MNEI) reference protein, SEQ ID NO: 28 (protein)
chain: GEWEIIDIGPFTQNLGKFAVDEENKIGQYGRLTFNKVIRPCMKKTIYENEGFREIKGYEYQLYVYASDKLFRADISEDYKTRGRKLLRFNGPVPPP
Q: With B2 as the molecule, how does the “Linger (AUC of the sweetness-intensity vs. time, 60-150 seconds)” value ([1]; MNEI, 8 Bx, P<0.05, FIG. 2) read?
A: significantly higher than the AUC of EGCG:MNEI (60:1)
